# Reference: US20150306011A1, “METHODS FOR USING SOY PEPTIDES TO INHIBIT H3 ACETYLATION, REDUCE EXPRESSION OF HMG-COA REDUCTASE AND INCREASE LDL RECEPTOR AND SP1 EXPRESSION IN A MAMMAL” (priority 2014, published 2015)
# “Also recorded” adds a separate entry of the source.
# How the values were obtained:
# [1] = tested on: tumor formation in mammalian cells; conditions: 1,000 nM (5 μg/ml) to 10,000 nM (50 μg/ml) lunasin; cited from earlier work
# [2] = tested on: LDL-receptor expression in HepG2 cells; assay: Western blot of LDL receptor expression in HepG2 cells in cholesterol-free media; assay type: cell-based; conditions: 10 uM synthetic lunasin, 24 hours, cholesterol-free media 24 hours
# Experimental: (§1) FIG. 3 is a photograph of a Western blot analysis (top) and a table (below) showing densitometer values indicating the relative levels of expression of LDL receptor in HepG2 cells that were (CFM +LS(24)) or were not (CFM) treated with lunasin for 24 hours prior to incubation in cholesterol free media (CFM) for 24 hours to activate SREBP. After incubations, total protein was extracted and 10 ug protein was loaded onto 10% Tris-glycine gels, electroblotted onto nitrocellulose membrane, and immunostained with primary antibodies raised against LDL-receptor and actin (to show equal loading of proteins.) Spot densitometer values represent mean and standard deviation of data from three separate experiments.
# In the second experiment, HepG2 cells (1×10^6) were treated with or without 10 uM synthetic lunasin in DMEM with 10% FBS for 24 hours before growth media is replaced with cholesterol-free media to activate SREBP. After 24 hours, total protein was extracted and 10 ug proteins loaded onto 10% Tris-glycine gels, electroblotted onto nitrocellulose membrane, and immunostained with primary antibodies raised against LDL-receptor and actin (to show equal loading of proteins). Spot densitometer values were obtained by digital scanning and Un-Scan It software, and represent mean and standard deviation of data from three separate experiments.
# [3] = tested on: histone H3 acetylation by PCAF; assay: PCAF histone acetylase (HAT) assay, core histones from HeLa cells as template, immunoblot; assay type: biochemical
# Experimental: Acid extracted protein from untreated (untrt) HeLa cells was used as template in histone acetylase reactions using HAT enzyme, PCAF, in the presence or absence of 10 uM lunasin. Reaction products were immunoblotted and stained with antibodies against diacetylated histone H3. Untrt (−) is the histone template control, NaB (+) correspond to acid extracted histones from NaButyrate treated HeLa cells (positive control). […] Numbers in parenthesis indicate densitometer readings relative to the untreated control (set as 1) in PCAF HAT reaction products.
# Acid extracted histones isolated from untreated (untrt) HeLa cells were used in PCAF HAT reactions, immunoblotted and stained with antibodies to H3 Ac-Lys9 and H3 Ac-Lys14. Untrt (−) is the histone template control, NaB (+) correspond to acid extracted histones from NaButyrate treated HeLa cells (posititve control), +Lun correspond to 10 uM lunasin treated histone template and −Lun correspond to non-lunasin treated. […] Numbers in parenthesis indicate densitometer readings relative to the signal level of lunasin/lunasin treatment (set as 1) in immunoblots stained with Ac-Lys14 H3.
# […] H3 histone acetylation by PCAF histone acetylase enzyme is required for the SREBP activation of genes involved in cholesterol biosynthesis including HMG-CoA reductase (9). Previous study has shown that lunasin is a potent inhibitor of histone H3 acetylation in mammalian cells exposed to the histone deacetylase inhibitor, sodium butyrate (NaB) (4). To determine the effect of lunasin on histone H3 acetylation by PCAF, HAT assay reaction using acid-extracted histones from untreated HeLa cells as template was conducted. […]
# The HAT bioactivity assay was conducted using acid extracted core histones from HeLa cells (Upstate/Millipore) as a template (temp (−) control) for the PCAF catalyzed HAT reaction. […] The numbers below the legend indicate relative densitometer readings normalized using immunosignal from the template (temp). […]
# [4] = tested on: histone H3 acetylation by PCAF; assay: PCAF HAT bioactivity assay, core histones from chicken erythrocyte as template; assay type: biochemical; conditions: around 10 ug sample protein with 1 ug core histones; versus untreated control
# Experimental: Lunasin-enriched soy concentrate with soy flour (LeSC+SF) retains bioactivity even when digested with digestive enzymes. Biological activity of LeSC (A), LeSC+SF (B), digested LeSC+SF (C), digested LeSC (D), digested soy protein isolate (E) and digested soy concentrate (F) was measured using the H3 histone acetyltransferase (HAT) assay (see Example 8.) Around 100 mg total protein of LeSC, LeSC+SF, soy protein isolate and soy concentrate were digested by mixing pancreatin (Sigma Life Sciences, Saint Louis, Mo.) at 1:1 (w/w) and incubating for 30 min. at 40° C. To confirm that the HAT assay is working, treatment with synthetic lunasin (+synL) was included. Synthetic lunasin reduced acetylation of histone H3 by the histone acetylase enzyme, PCAF, using core histones isolated from chicken erythrocyte (Upstate/Millipore, Billerica, Mass.) as template for the HAT assay. […]
# Core histones purified from chicken erythrocyte cells were used as templates in histone acetylase (HAT) reactions using PCAF histone acetylase enzyme, in the presence or absence of around 2-10 uM lunasin. […] Chemiluminescent signals from antibody complexes were visualized using standard chemiluminescent reagents and exposed to Kodak BioMAX film, developed and spot densitometer measured by using digital scanner and UN-SCAN-IT software program from Silk Scientific (Orem, Utah).
# [5] = tested on: HMG-CoA reductase expression in HepG2 cells; assay: Western blot of HMG-CoA reductase expression in HepG2 cells in cholesterol-free media; assay type: cell-based; conditions: 10 uM synthetic lunasin, 24 hours, cholesterol-free media 24 hours
# Experimental: as §1, with “2” for “3”, “HMG-CoA reductase” for “LDL receptor”, “(CFM+LS (24))” for “(CFM +LS(24))”, “sterol regulatory element binding proteins (SREBP.)” for “SREBP.”, “HMG-CoA reductase” for “LDL-receptor”
# In the first experiment, HepG2 cells (1×10^6) were treated with or without 10 uM synthetic lunasin in DMEM with 10% FBS for 24 hours before growth media was replaced with cholesterol-free media to activate SREBP. After 24 hours, total protein was extracted and 10 ug protein was loaded onto 10% Tris-glycine gels, electroblotted onto nitrocellulose membrane, and immunostained with primary antibodies raised against HMG-CoA reductase and actin (to show equal loading of proteins). […]
# [6] = cited from earlier work
# [7] = tested on: Sp1 expression in HepG2 cells; assay: Western blot of Sp1 levels in HepG2 cells; assay type: cell-based; conditions: 10 uM synthetic lunasin, one experiment
# Experimental: FIG. 4 is a photograph of a Western blot analysis (top) and a table (below) showing densitometer values indicating the relative levels of expression of Sp1 in HepG2 cells that were grown from confluence in growth media for 24 hours before growth media was replaced with fresh growth media (Media), media with lunasin (Media+LS) or cholesterol free media with lunasin (CFM+LS) or without lunasin (CFM). Samples were then incubated for 24 or 48 hours as indicated. […]
# Unlike HMG-CoA reductase, SREBP activation of LDL-receptor by sterol depletion requires increased recruitment of Sp1 co-activator to a site adjacent to SREBP in the promoter/regulatory sequence of LDL-receptor gene (25). […] To test this hypothesis, the level of Sp1 was determined in lunasin-treated growth media and cholesterol-free media by Western analysis using Sp1 antibody, as follows: HepG2 cells (1×10^6) were grown from confluence in DMEM with 10% FBS for 24 hours before growth media was replaced with fresh growth media or cholesterol-free media (to activate SREBP) and treated with, or without 10 uM synthetic lunasin. […]
# [8] = 10 uM lunasin, acid-extracted histones from untreated HeLa cells
substance,measurement,setting,value
"lunasin: natural, synthetically or recombinantly obtained soybean lunasin polypeptide (SEQ. ID. 2), small subunit of a cotyledon-specific 2S albumin",tumor reduction activity compared to the control group,[1],statistically significant tumor reduction activity
same,increase of LDL-receptor expression,[2],more than 60%
same,H3 Lys 14 acetylation by PCAF (antibodies to H3 Ac-Lys9 and H3 Ac-Lys14),[3]; [8],"decreased H3 Lys 14 acetylation; also recorded: specifically binds to Lys 14, preventing it from being acetylated by PCAF"
same,"histone H3 acetylation (diacetylated H3, Ac-Lys9+Ac-Lys14) by PCAF",[3]; [8],significant decrease in H3 acetylation; also recorded: dramatic reduction of histone H3 acetylation
same,"H3 acetylation by PCAF, undigested samples (Example 6)",[3]; core histones from HeLa cells as template,significant reduction in H3 acetylation
same,"H3 acetylation by PCAF, undigested samples (Example 5)",[4],significant reduction in H3 acetylation
same,reduction of HMG-CoA reductase expression,[5],more than 50%
same,water solubility,[6],water soluble
same,increase of Sp1 levels in cholesterol-free media,[7]; cholesterol-free media,~60%
same,"Sp1 levels, lunasin-treated versus control growth media",[7]; growth media,not significantly different
